Tested on: IL-8 secreted by F508del/F508del CF human airway epithelial cells
Assay: IL-8 ELISA, CF airway epithelial cells cultured at the air-liquid interface (ALI), treatment during regeneration and differentiation
Type: cell-based
Protocol: FIG. 1: Measurement by ELISA assay of the pro-inflammatory chemokine IL-8 secreted by F508del/F508del CF human airway epithelial cells cultured at the air-liquid interface (ALI). Airway epithelial cells were seeded in bi-compartmental chambers and cultured in liquid-liquid condition until confluence was reached. At confluence, culture medium from the upper chamber was removed to create an air-liquid interface (ALI) that will favor epithelial cell differentiation. From the ALI creation, the different treatments (15-45 kDa sodium-hyaluronic acid (HA-Na 15-45 kDa) (ARD—Pomacle—France—as prepared according to WO2004050187), 15-30 kDa sodium-hyaluronic acid (HA-Na 15-30 kDa) (Sigma Aldrich) or 30-50 kDa sodium-hyaluronic acid (HA-Na 30-50 kDa) (Sigma Aldrich) were added at 1 mg/mL to the culture medium in the basal chamber. The culture medium was renewed three times a week. At ALI day 15, the culture medium was replaced by fresh medium without any treatment. After a 4 h-period, this culture medium was collected and the IL-8 content was determined by ELISA assay. n=5 different F508del/F508del CF patients. p<0.001 (***); p<0.01 (**); p<0.05 (*). ns: non-significant.
FIG. 4: Measurement by ELISA assay of the pro-inflammatory chemokine IL-8 secreted by F508del/F508del CF human airway epithelial cells cultured at the air-liquid interface (ALI). Airway epithelial cells were seeded in bi-compartmental chambers and cultured in liquid-liquid condition until confluence was reached. At confluence, culture medium from the upper chamber was removed to create an air-liquid interface (ALI) that will favor epithelial cell differentiation. From the ALI creation, the different treatments (15-45 kDa sodium-hyaluronic acid (HA-Na 15-45 kDa) (ARD—Pomacle—France—as prepared according to WO2004050187), 15-45 kDa calcium-hyaluronic acid (HA-Ca 15-45 kDa; ARD), or 15-45 kDa potassium-hyaluronic acid (HA-K 15-45 kDa; ARD) were added at 1 mg/mL to the culture medium in the basal chamber. The culture medium was renewed three times a week. At ALI day 15, the culture medium was replaced by fresh medium without any treatment. After a 4 h-period, this culture medium was collected and the IL-8 content was determined by ELISA assay. n=4 different F508del/F508del CF patients. p<0.001 (***); p<0.01 (**); p<0.05 (*). ns: Non-significant.
FIG. 7: Measurement by ELISA assay of the pro-inflammatory chemokine IL-8 secreted by F508del/F508del CF human airway epithelial cells cultured at the air-liquid interface (ALI). Airway epithelial cells were seeded in bi-compartmental chambers and cultured in liquid-liquid condition until confluence was reached. At confluence, culture medium from the upper chamber was removed to create an air-liquid interface (ALI) that will favor epithelial cell differentiation. From the ALI creation, 15-45 kDa sodium-hyaluronic acid (HA-Na 15-45 kDa) (ARD—Pomacle—France—as prepared according to WO2004050187) was added at 0.1 mg/mL, 0.5 mg/mL, 1 mg/mL and 2 mg/mL to the culture medium in the basal chamber. The culture medium was renewed three times a week. At ALI day 15, the culture medium was replaced by fresh medium without any treatment. After a 4 h-period, this culture medium was collected and the IL-8 content was determined by ELISA assay. n=3 different F508del/F508del CF patients. p<0.001 (***); p<0.01 (**); p<0.05 (*). ns: non-significant.

[1] = FIG. 1, 1 mg/mL from ALI creation, ALI day 15, vs control condition, n=5 CF patients
[2] = FIG. 4, 1 mg/mL from ALI creation, ALI day 15, vs control condition, n=4 CF patients

Substance	decrease in IL-8 secretion [1] [%]	decrease in IL-8 secretion [2] [%]	decrease in IL-8 secretion (FIG. 7, 0.1 mg/mL, ALI day 15, n=3 CF patients)	decrease in IL-8 secretion (FIG. 7, 0.5 mg/mL, ALI day 15, n=3 CF patients) [%]	decrease in IL-8 secretion (FIG. 7, 1 mg/mL, ALI day 15, n=3 CF patients) [%]	decrease in IL-8 secretion (FIG. 7, 2 mg/mL, ALI day 15, n=3 CF patients) [%]
30-50 kDa sodium-hyaluronic acid [HA-Na 30-50 kDa]	67.2					
15-30 kDa sodium-hyaluronic acid [HA-Na 15-30 kDa]	57					
15-45 kDa calcium-hyaluronic acid [HA-Ca 15-45 kDa]		59.25				
15-45 kDa sodium-hyaluronic acid [HA-Na 15-45 kDa]	52	55.5	does not have anymore effect	47.3	62	65

— patent US20260158056A1, “USE OF LOW MOLECULAR WEIGHT HYALURONIC ACID FOR THE TREATMENT OF LUNG MUCOSAL INFLAMMATION” (INSTITUT NATIONAL DE LA SANTÉ ET DE LA RECHERCHE MÉDICALE, priority 2021, published 2026)
